Experimental data from PMC6766848, “Inhibition of Pancreatic α-amylase by Resveratrol Derivatives: Biological Activity and Molecular Modelling Evidence for Cooperativity between Viniferin Enantiomers” (Molecules, 2019).
pKi: −log10 of the molar value.

Biological target: T1, Porcine pancreatic α-amylase (Sus scrofa, UniProt P00690)
T1 construct: purchased Sigma-Aldrich (Milan, Italy)
T1 sequence (P00690 16-511): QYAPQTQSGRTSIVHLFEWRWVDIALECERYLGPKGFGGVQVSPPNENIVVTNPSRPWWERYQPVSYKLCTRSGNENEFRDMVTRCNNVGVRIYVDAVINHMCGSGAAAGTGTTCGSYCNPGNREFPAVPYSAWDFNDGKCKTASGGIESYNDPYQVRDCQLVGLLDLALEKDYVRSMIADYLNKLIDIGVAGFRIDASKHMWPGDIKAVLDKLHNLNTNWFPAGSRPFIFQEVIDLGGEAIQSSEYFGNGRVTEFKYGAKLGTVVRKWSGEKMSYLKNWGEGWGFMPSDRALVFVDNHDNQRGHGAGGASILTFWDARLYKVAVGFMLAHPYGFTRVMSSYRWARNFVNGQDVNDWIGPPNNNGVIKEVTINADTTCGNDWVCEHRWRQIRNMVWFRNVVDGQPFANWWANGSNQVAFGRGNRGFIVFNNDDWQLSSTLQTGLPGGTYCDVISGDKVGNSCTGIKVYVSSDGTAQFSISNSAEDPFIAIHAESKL
Test: Pancreatic α-amylase inhibition (modified K-AMYLSD kit, p-nitrophenyl-α-D-maltoheptaoside substrate)
Assay type: biochemical
Settings: for inhibition at 10000 µM: 10 mM final concentration; for Hill cooperativity coefficient (n^H) / pKi: three-parameter Hill equation fit, inhibitor zero to 0.1 mM; for pKi: read-out: Ki^app
Experimental: The monomeric and dimeric stilbenoids described above were tested for their ability to inhibit the enzyme α-amylase, using acarbose as a reference compound. The method used to evaluate the enzyme activity relies on a two-step procedure. In a first step, α-amylase acts on a modified p-nitrophenyl-α-D-maltoheptaoside, releasing products that may be hydrolyzed by an excess α-glucosidase present in the assay mixture, therefore allowing spectrophotometric quantitation of the released p-nitrophenolate anion.
Porcine pancreatic α-amylase [EC 3.2.1.1] was from Sigma-Aldrich (Milan, Italy). Activity was monitored by using the K-AMYLSD kit from Megazyme (Bray, Ireland), with modifications. An aliquot of α-amylase (0.03 mL, 0.1 μM in 50 mM phosphate buffer, pH 6.8) was added to 0.120 mL of 50 mM phosphate buffer, pH 6.8, in a microtiter plate well. The investigated compounds where then added as methanolic solutions (0.03 mL) of appropriate concentration. The reaction was started by adding 0.02 mL of the substrate solution provided with the kit, resulting in a final concentration of 0.4 μM substrate. The kit-provided substrate solution also contained an excess of thermostable bacterial α-glucosidase, that is required for the release of the p-nitrophenolate anion from the p-nitrophenyl glucosides produced by the activity of α-amylase on the chemically modified maltoheptaoside. At appropriate times, the reaction was stopped by adding 0.1 mL of 0.2 M Na2CO3, and the absorbance was read in a microplate reader set at 405 nm. Blanks were prepared in the absence of the pancreatic α-amylase. […] Acarbose (from a stock solution in methanol) was used as the reference inhibitor. A minimum of three independent replications was carried out for each assay.

Compound	inhibition at 10000 µM (versus controls with 15% MeOH) [%]	other results
COc1cc(/C=C/c2ccc3c(c2)[C@@H](c2cc(OC)cc(OC)c2)[C@H](c2ccc(O)cc2)O3)cc(OC)c1 (relative stereo) [compound 8, pterostilbene-trans-dihydrodimer]	28	–
Oc1ccc([C@@H]2Oc3ccc(/C=C/c4cc(O)cc(O)c4)cc3[C@H]2c2cc(O)cc(O)c2)cc1 [(R, R)-trans-δ-viniferin]	–	Hill cooperativity coefficient (n^H): 1.5; pKi: 4.37
Oc1ccc([C@H]2Oc3ccc(/C=C/c4cc(O)cc(O)c4)cc3[C@@H]2c2cc(O)cc(O)c2)cc1 [(S, S)-trans-δ-viniferin]	–	Hill cooperativity coefficient (n^H): four; pKi: 4.24
C[C@H]1O[C@H](O[C@H]2[C@H](O)[C@@H](O)[C@@H](O[C@H]3[C@H](O)[C@@H](O)C(O)O[C@@H]3CO)O[C@@H]2CO)[C@H](O)[C@@H](O)[C@@H]1N[C@H]1C=C(CO)[C@@H](O)[C@H](O)[C@H]1O (stereo partly shown) [acarbose, reference compound]	–	inhibition at 1000 µM (1 mM final concentration, versus controls with 15% MeOH): 86%
COc1cc(/C=C/c2ccc(O)cc2)cc(OC)c1 [compound 2, pterostilbene]	21	–
Oc1ccc(C2Oc3ccc(C=Cc4cc(O)cc(O)c4)cc3C2c2cc(O)cc(O)c2)cc1 (stereo not drawn) [compound 5, Trans-δ-viniferin]	~90	–
Oc1ccc(C=Cc2cc(O)cc3c2C(c2cc(O)cc(O)c2)C(c2ccc(O)cc2)O3)cc1 (stereo not drawn) [compound 6, Trans-ε-viniferin]	~90	–
Oc1ccc([C@@H]2c3c(O)cc(O)cc3[C@H]3[C@H](c4ccc(O)cc4)c4c(O)cc(O)cc4[C@@H]23)cc1 [compound 7, pallidol]	21 to 45	–
